Assay results reported in ChEMBL document CHEMBL3352536, “Antiparasitic compounds may potentially treat malaria and other parasitic diseases” (ACS Med Chem Lett, 2014).

How the values were obtained:
Plasmodium falciparum = assay: Antiplasmodial activity against Plasmodium falciparum infected in human blood cells assessed as inhibition of proliferation; format: functional, organism-based
Plasmodium yoelii = assay: Antiplasmodial activity against Plasmodium yoelii infected in liver cells assessed as inhibition of proliferation; format: functional, organism-based

SMILES | EC50 (Plasmodium falciparum) | EC50 (Plasmodium yoelii)
CN(C(=O)c1cn2c(-c3ccc(C(N)=O)cc3)cnc2cn1)c1ccc(F)cc1 | 0.074 µM | 0.056 µM
CN(Cc1cn2c(-c3ccc(C(N)=O)cc3)cnc2cn1)c1ccc(F)cc1 | 0.03 µM | 0.007 µM
CN(Cc1cn2c(-c3ccc(C(N)=O)cc3)cnc2cn1)c1ccc(Cl)cc1 | 0.009 µM | 0.011 µM
Cc1ccc(N(C)C(=O)c2cn3c(-c4ccc(C(F)(F)F)cc4)cnc3cn2)nc1 | 0.199 µM | 1.11 µM
